From US20250084091A1, “INHIBITORS OF SARS-COV-2” (The Texas A&M University System, priority 2021, published 2025)
≈ marks a conversion by molar mass, not a printed value. Like-named read-outs stand apart in the source and are kept apart here.

Experiments:
[1] = system: HeLa-ACE2 cells; assay: cells; assay type: cell-based; settings: Table 2, total cell count in infected plates
[2] = biological target: SARS-CoV-2 main protease (Mpro) (Severe acute respiratory syndrome coronavirus 2, UniProt P0DTD1); assay: biochemical
[3] = Uninfected host cell cytotoxicity counter screen; assay type: cell-based; settings: human
How it was run: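 HeLa-ACE2 cells, uninfected, seeded at 400 cells/well with compounds and held 24 hours at 37° C., 5% CO2. Dead cells stained with Image-iT DEAD green, fixed in 4% paraformaldehyde, DAPI-counterstained and imaged. Data normalized to DMSO and 40 μM puromycin controls; concentration responses in triplicate.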

[4] = system: SARS-CoV-2 (strain USA-WA1/2020); assay: microbe, parasite or virus in culture; assay type: cell-based
[5] = system: CoV-2 in Vero cells; assay: CoV-2 Vero antiviral assay; assay type: cell-based, SARS-CoV-2; settings: Severe acute respiratory syndrome coronavirus 2, Vero, read-out: CoV-2 Vero EC50/100
[6] = Severe acute respiratory syndrome coronavirus 2, Table 2, SARS-CoV-2 infected HeLa-ACE2 cells, read-out: CoV-2 HeLa EC50
[7] = Table 3, select example compounds against mpro, read-out: Enzyme IC50
[8] = Severe acute respiratory syndrome coronavirus 2, HeLa, Table 3, read-out: CoV-2 HeLa EC50

Structure (SMILES): O=C(c1cncc(Br)c1)N1CCN(C(c2ccccc2)c2ccccc2)CC1 [AA-551, (4-benzhydrylpiperazin-1-yl)(5-bromopyridin-3-yl)methanone]
- EC50 [1]: > 9.61 µM
- IC50 ([2]; Table 2, read-out: Enzyme IC50): 220 nM
- CC50 at 24 h [3]: > 39.8 µM
- EC50 [4, 6]: 820 nM
- EC50 [5]: 2.5 µg/mL (≈ 5.73 µM)

Structure (SMILES): Cc1cncc(C(=O)N2CCN(C(c3ccccc3)c3ccccc3)CC2)c1 [AA-596, (4-benzhydrylpiperazin-1-yl)(5-methylpyridin-3-yl)methanone]
- EC50 [1]: > 9.61 µM
- IC50 ([2]; Table 2, read-out: Enzyme IC50): 130 nM
- CC50 at 24 h [3]: > 39.8 µM
- EC50 [4, 6]: 360 nM
- EC50 [5]: 2.5 µg/mL (≈ 6.73 µM)

Structure (SMILES): Cc1cncc(C(=O)N2CC3CCC(C2)N3C(c2ccccc2)c2ccccc2)c1 [AA-604, (8-benzhydryl-3,8-diazabicyclo[3.2.1]octan-3-yl)(5-methylpyridin-3-yl)methanone]
- EC50 [1]: > 9.61 µM
- IC50 ([2]; Enzyme IC50, Table 2): 81 nM
- CC50 at 24 h ([3]; Table 2, uninfected cells, 24 hours, read-out: Uninfected HeLa-ACE2 CC50): > 39.8 µM
- EC50 ([4]; Severe acute respiratory syndrome coronavirus 2, HeLa-ACE2, read-out: CoV-2 HeLa EC50, Table 2, SARS-CoV-2 infected HeLa-ACE2 cells): 240 nM
- EC50 [5]: 5 µg/mL (≈ 12.6 µM)

Structure (SMILES): Cc1cncc(C(=O)N2CCN(C(c3ccccc3)c3cccnc3)CC2)c1 (stereo not shown) [MKP-1217, 1-(5-methylpyridine-3-carbonyl)-4-[phenyl(pyridin-3-yl)methyl]piperazine]
- EC50 [1]: 1.31 µM
- IC50 ([2]; Table 2, read-out: Enzyme IC50): 320 nM
- CC50 at 24 h [3]: > 39.8 µM
- EC50 [4, 6]: 475 nM
- EC50 [5]: 10 µg/mL (≈ 26.8 µM)

Structure (SMILES): Cc1cncc(C(=O)N2CCN(C(c3ccccc3)c3cccc(F)c3)CC2)c1 (stereo not shown) [MKP-1225, 1-[(3-fluorophenyl)(phenyl)methyl]-4-(5-methylpyridine-3-carbonyl)piperazine]
- EC50 [1]: 0.481 µM
- IC50 ([2]; Table 2, read-out: Enzyme IC50): 38 nM
- CC50 at 24 h [3]: > 39.8 µM
- EC50 [4, 6]: 210 nM
- EC50 [5]: 2.5 µg/mL (≈ 6.42 µM)

Structure (SMILES): Cc1cncc(C(=O)N2CCN(C(c3cccc(F)c3)c3cccc(F)c3)CC2)c1 [MKP-1268, 1-[bis(3-fluorophenyl)methyl]-4-(5-methylpyridine-3-carbonyl)piperazine]
- EC50 [1]: 0.143 µM
- IC50 ([2]; Table 2, read-out: Enzyme IC50): 36 nM
- CC50 at 24 h [3]: > 39.8 µM
- EC50 [4, 6]: 111 nM
- EC50 [5]: 2.5 µg/mL (≈ 6.14 µM)

Structure (SMILES): Cc1cncc(C(=O)N2CCN(C(c3ccccc3)c3ccccc3S(C)(=O)=O)CC2)c1 (stereo not shown) [NZ-807, (5-methyl-3-pyridyl)-[4-[(2-methylsulfonylphenyl)-phenyl-methyl]piperazin-1-yl]methanone]
- EC50 [1]: > 9.61 µM
- IC50 ([2]; Table 2, read-out: Enzyme IC50): 610 nM
- CC50 at 24 h [3]: > 39.8 µM
- EC50 [4, 6]: 1990 nM

Structure (SMILES): O=C(c1cncc2cc[nH]c12)N1CCN(C2c3ccccc3CS(=O)(=O)c3ccccc32)CC1 (stereo not shown) [NZ-808, [4-(5,5-dioxo-6,11-dihydrobenzo[c][1]benzothiepin-11-yl)piperazin-1-yl]-(1H-pyrrolo[3,2-c]pyridin-7-yl)methanone]
- EC50 [1]: 0.03 µM
- IC50 ([2]; Table 2, read-out: Enzyme IC50): 32 nM
- IC50 [2, 7]: 10 nM
- CC50 at 24 h [3]: > 39.8 µM
- EC50 [4, 8]: 25 nM
- EC50 [4, 6]: 25 nM

Structure (SMILES): O=C(c1cncc2[nH]ccc12)N1CCN(C2c3ccccc3CS(=O)(=O)c3ccccc32)CC1 (stereo not shown) [NZ-809, [4-(5,5-dioxo-6,11-dihydrobenzo[c][1]benzothiepin-11-yl)piperazin-1-yl]-(1H-pyrrolo[2,3-c]pyridin-4-yl)methanone]
- EC50 [1]: 0.111 µM
- IC50 ([2]; Table 2, read-out: Enzyme IC50): 43 nM
- IC50 [2, 7]: 15 nM
- CC50 at 24 h [3]: > 39.8 µM
- EC50 [4, 8]: 88 nM
- EC50 [4, 6]: 88 nM

Structure (SMILES): O=C(c1cncc2nc[nH]c12)N1CCN(C2c3ccccc3CS(=O)(=O)c3ccccc32)CC1 (stereo not shown) [NZ-810, [4-(5,5-dioxo-6,11-dihydrobenzo[c][1]benzothiepin-11-yl)piperazin-1-yl]-(1H-imidazo[4,5-c]pyridin-7-yl)methanone]
- EC50 [1]: 0.434 µM
- IC50 ([2]; Table 2, read-out: Enzyme IC50): 75 nM
- CC50 at 24 h [3]: > 39.8 µM
- EC50 [4, 6]: 482 nM

Structure (SMILES): O=C(c1cccnc1)N1CCN(C2c3ccccc3CCc3ccccc32)CC1 [ZS-312, 3-pyridyl-[4-(2-tricyclo[9.4.0.03,8]pentadeca-1(11),3(8),4,6,12,14-hexaenyl)piperazin-1-yl]methanone]
- EC50 [1]: > 9.61 µM
- IC50 ([2]; Table 2, read-out: Enzyme IC50): 440 nM
- CC50 at 24 h [3]: > 39.8 µM
- EC50 [4, 6]: 1040 nM

Structure (SMILES): O=C(c1cncc(Cl)c1)N1CCN(C2c3ccccc3CCc3ccccc32)CC1 [ZS-317, (5-chloro-3-pyridyl)-[4-(2-tricyclo[9.4.0.03,8]pentadeca-1(11),3(8),4,6,12,14-hexaenyl)piperazin-1-yl]methanone]
- EC50 [1]: > 9.61 µM
- IC50 ([2]; Table 2, read-out: Enzyme IC50): 180 nM
- CC50 at 24 h [3]: > 39.8 µM
- EC50 [4, 6]: 900 nM

Structure (SMILES): O=C(c1cncc(F)c1)N1CCN(C2c3ccccc3CCc3ccccc32)CC1 [ZS-318, (5-fluoro-3-pyridyl)-[4-(2-tricyclo[9.4.0.03,8]pentadeca-1(11),3(8),4,6,12,14-hexaenyl)piperazin-1-yl]methanone]
- EC50 [1]: > 9.61 µM
- IC50 ([2]; Table 2, read-out: Enzyme IC50): 150 nM
- CC50 at 24 h [3]: > 39.8 µM
- EC50 [4, 6]: 700 nM

Structure (SMILES): COc1cncc(C(=O)N2CCN(C3c4ccccc4CCc4ccccc43)CC2)c1 [ZS-319, (5-methoxy-3-pyridyl)-[4-(2-tricyclo[9.4.0.03,8]pentadeca-1(11),3(8),4,6,12,14-hexaenyl)piperazin-1-yl]methanone]
- EC50 [1]: > 9.61 µM
- IC50 ([2]; Table 2, read-out: Enzyme IC50): 210 nM
- CC50 at 24 h [3]: 32.1 µM
- EC50 [4, 6]: 920 nM

Structure (SMILES): O=C(c1cc[nH]c(=O)c1)N1CCN(C2c3ccccc3CCc3ccccc32)CC1 [ZS-320, 4-[4-(2-tricyclo[9.4.0.03,8]pentadeca-1(11),3(8),4,6,12,14-hexaenyl)piperazine-1-carbonyl]-1H-pyridin-2-one]
- EC50 [1]: > 9.61 µM
- IC50 ([2]; Table 2, read-out: Enzyme IC50): 1180 nM
- CC50 at 24 h [3]: > 39.8 µM
- EC50 [4, 6]: 2530 nM

Structure (SMILES): O=C1CC(C(=O)N2CCN(C3c4ccccc4CCc4ccccc43)CC2)c2ccccc2N1 (stereo not shown) [ZS-324, 4-[4-(2-tricyclo[9.4.0.03,8]pentadeca-1(11),3(8),4,6,12,14-hexaenyl)piperazine-1-carbonyl]-3,4-dihydro-1H-quinolin-2-one]
- EC50 [1]: > 9.61 µM
- IC50 ([2]; Table 2, read-out: Enzyme IC50): 540 nM
- CC50 at 24 h [3]: 21.1 µM
- EC50 [4, 6]: 2790 nM

Structure (SMILES): O=C1CC(C(=O)N2CCN(C(c3ccccc3)c3ccccc3)CC2)c2ccccc2N1 (stereo not shown) [ZS-325, 4-(4-benzhydrylpiperazine-1-carbonyl)-3,4-dihydro-1H-quinolin-2-one]
- EC50 [1]: > 9.61 µM
- IC50 ([2]; Table 2, read-out: Enzyme IC50): 1510 nM
- CC50 at 24 h [3]: > 39.8 µM
- EC50 [4, 6]: 5680 nM

Structure (SMILES): COC(=O)c1cncc(C(=O)N2CCN(C3c4ccccc4CCc4ccccc43)CC2)c1 [ZS-338, methyl 5-[4-(2-tricyclo[9.4.0.03,8]pentadeca-1(11),3(8),4,6,12,14-hexaenyl)piperazine-1-carbonyl]pyridine-3-carboxylate]
- EC50 [1]: > 9.61 µM
- IC50 ([2]; Table 2, read-out: Enzyme IC50): > 1000 nM
- CC50 at 24 h [3]: > 39.8 µM
- EC50 [4, 6]: 7070 nM

Structure (SMILES): O=C(c1cncc([N+](=O)[O-])c1)N1CCN(C2c3ccccc3CCc3ccccc32)CC1 [ZS-339, (5-nitro-3-pyridyl)-[4-(2-tricyclo[9.4.0.03,8]pentadeca-1(11),3(8),4,6,12,14-hexaenyl)piperazin-1-yl]methanone]
- EC50 [1]: > 9.61 µM
- IC50 ([2]; Table 2, read-out: Enzyme IC50): 1150 nM
- CC50 at 24 h [3]: > 39.8 µM
- EC50 [4, 6]: 4060 nM

Structure (SMILES): Cc1c(Br)cncc1C(=O)N1CCN(C2c3ccccc3CCc3ccccc32)CC1 [ZS-346, (5-bromo-4-methyl-3-pyridyl)-[4-(2-tricyclo[9.4.0.03,8]pentadeca-1(11),3(8),4,6,12,14-hexaenyl)piperazin-1-yl]methanone]
- EC50 [1]: 2.04 µM
- IC50 ([2]; Table 2, read-out: Enzyme IC50): 270 nM
- CC50 at 24 h [3]: > 39.8 µM
- EC50 [4, 6]: 1070 nM

Structure (SMILES): NC(=O)c1cncc(C(=O)N2CCN(C3c4ccccc4CCc4ccccc43)CC2)c1 [ZS-347, 5-[4-(2-tricyclo[9.4.0.03,8]pentadeca-1(11),3(8),4,6,12,14-hexaenyl)piperazine-1-carbonyl]pyridine-3-carboxamide]
- EC50 [1]: > 9.61 µM
- IC50 ([2]; Table 2, read-out: Enzyme IC50): 1700 nM
- CC50 at 24 h [3]: > 39.8 µM
- EC50 [4, 6]: 4250 nM
